Data as given in ChEMBL document CHEMBL1154198, “Chemical genetics of Plasmodium falciparum” (Nature, 2010).

Legend:
Plasmodium falciparum [1] = test: ST_JUDE: Plasmodium falciparum 3D7 EC50 (uM) as measured by SYBR green dye; format: functional, organism-based
Plasmodium falciparum [2] = test: ST_JUDE: Plasmodium falciparum K1 EC50 (uM) as measured by SYBR green dye; format: functional, organism-based

Compound	EC50 (Plasmodium falciparum [1]) [µM]	EC50 (Plasmodium falciparum [2]) [µM]
Cc1ccc2nc(Nc3nc(O)c4ccccc4n3)nc(C)c2c1	6.29	4.56
O=C(NC(c1cccc([N+](=O)[O-])c1)c1cc(Cl)c2cccnc2c1O)c1cccnc1 (stereo not drawn)	4.65	2.73
Cc1[nH]c2c(-c3ccc(Cl)cc3)cnn2c(=O)c1Cc1ccccc1	6.84	6.88
CCOc1ccc(N2C(N)=NC(N)=NC2(C)C)cc1	0.238	> 15
CCOc1ccc(-c2nonc2NC(=O)CC(C)C)cc1OCC	3.14	3.78
O=C(Nc1ccccc1-c1nc2ccccc2s1)C(Cl)(Cl)Cl	> 15	2.69
CCCCCCCCn1ccc(=N)cc1	2.18	1.41
Cc1cc(Nc2ccc(C)c(F)c2)n2nc(C)nc2n1	1.29	3.09
COc1ccc2c(c1)C(=NN=C(N)N)c1cc(OC)ccc1-2	0.506	1.01
OCCNc1nc(Nc2ccc(Cl)cc2)nc2ccccc12	1.02	3.2
COc1ccccc1/C=C/C(=O)Nc1ccc(Cl)c(C(F)(F)F)c1	> 15	> 15
O=C(Cc1cccc(F)c1)N1CCC(=O)N(CC2CC2)CC1	> 15	> 15
Cc1ccc(C(C)C)c(OCc2nc3ccccc3n2C)c1	> 15	> 15
CCc1ccc(NC(=O)C2c3cc(OC)c(OC)cc3C(=O)N(C)C2c2cccs2)cc1 (stereo not drawn)	3.54	3.8
COc1cccc(C2C(C(=O)Nc3ccccc3C)=C(C)Nc3nnnn32)c1 (stereo not drawn)	> 15	> 15
O=C1CC(O)(C(F)(F)C(F)(F)F)Oc2ccccc21 (stereo not drawn)	2.57	2.48
Cc1ccccc1NC(=O)Nc1ccnn1C1CCN(Cc2ccc(OC(C)C)cc2)CC1	6.74	> 15
CCOC(=O)c1ccc(NC(=O)c2cc([N+](=O)[O-])ccc2NC(=O)CNC2CCN(Cc3ccccc3)CC2)cc1	1.27	3.68
CC(=O)OCCCCCCCCCCC[N+]1(C)CCCCC1	> 15	5.48
CC(C)(C)c1ccc(O)c(CN2CCN(c3ccccc3)CC2)c1	1.1	0.51
CC(C)c1ccc(CN(Cc2ccco2)C(=O)COc2ccccc2Cl)cc1	7.43	> 15

Compound	EC50 (Plasmodium falciparum [1]) [µM]	EC50 (Plasmodium falciparum [2]) [µM]
Cc1ccc(CN2c3ccccc3C(O)=C(/C=N/c3ccc4c(c3)N3CCN=C3S4)S2(=O)=O)cc1	2.18	> 15
CCN1CCN(CCNC(=O)c2ccc(/C=C3/Sc4ccccc4N(Cc4cccc(Cl)c4)C3=O)cc2)CC1	> 15	> 15
CCOc1ccccc1C(=O)Nc1cc2c3c(c1)CCN3C(=O)CC2	> 15	> 15
C=CCn1c(=N)n(CC(O)COc2cccc(C)c2)c2ccccc21 (stereo not drawn)	7.13	> 15
CN(C)CCNC(=O)c1[nH]c2ccccc2c1Sc1ccc(Cl)cc1	4.53	3.5
CCN(CC)CCNC(=O)c1cc2c(-c3cccc(OC)c3)nn(C)c2s1	4.04	> 15
Cc1ccccc1-c1cnc(-c2cccnc2)nc1C1CCN(C(=O)CCCc2cccs2)CC1	5.76	4.53
COc1ccccc1/C=C/CN1CCC2(CCC(CNC(=O)C3CCOCC3)O2)CC1 (stereo not drawn)	> 15	> 15
O=C(Nc1cccc(Cl)c1)Nc1ccccc1OC(F)(F)C(F)F	3.06	1.32
Cn1c(-c2ccc(F)cc2)[n+](C)c2ccccc21	1.88	3.79
COC(=O)Nc1ccc(S(=O)(=O)ON=C2C=C(C(C)(C)C)C(=O)C(C(C)(C)C)=C2)cc1	6.84	0.389
Cc1cc(O)nc(Nc2nc(C)c3cccc(C)c3n2)n1	> 15	> 15
CCOC(=O)c1cccc(NC(=O)CC2C(=O)N(c3ccc(F)cc3)C(=O)N2C2CCCC2)c1 (stereo not drawn)	0.344	0.984
c1ccc(CN2CCN(c3nc(N(c4ccccc4)c4ccccc4)nc(-n4ccnc4)n3)CC2)cc1	2.46	1.81
CC(=O)c1cccc(CN2CCN(CC(C)C)C(CCO)C2)c1 (stereo not drawn)	> 15	> 15
Cc1ccc(Nc2cc(C)nc(Nc3ccc(NS(=O)(=O)c4cccc(F)c4)cc3)n2)cc1	1.24	> 15
COc1ccc2cc(C(=O)C3CCCN(C4CCN(C(C)C)CC4)C3)ccc2c1 (stereo not drawn)	7.92	> 15
Cc1cccc(N2COc3ccc(C(C)(C)C)cc3C2)c1	> 15	> 15
CC(C)CN(CC(C)C)S(=O)(=O)c1ccc(C(=O)Nc2nc(-c3ccccn3)cs2)cc1	> 15	3.28
COc1ccc(Nc2cc(C)nc(Nc3ccc(NS(=O)(=O)c4cccc(C)c4)cc3)n2)cc1	1.99	> 15
Cc1ccc(C)c(C(Nc2ccccn2)c2cc(Cl)c3cccnc3c2O)c1 (stereo not drawn)	> 15	> 15

Compound	EC50 (Plasmodium falciparum [1]) [µM]	EC50 (Plasmodium falciparum [2]) [µM]
CCCCc1ccc(NC(=O)Cc2csc(NC(=O)c3cc(OC)cc(OC)c3)n2)cc1	> 15	> 15
COc1ccc(C2CC3=NC(C)=C(C(=O)OCC(C)C)C(c4ccc(F)cc4)C3=C(O)C2)cc1 (stereo not drawn)	2.7	3.01
Oc1ccc(Nc2nc(-c3ccccc3)c3cc(Br)ccc3n2)cc1	> 15	3.05
CCc1ccccc1NC(=O)C1c2ccccc2C(=O)N2CCc3ccccc3C12 (stereo not drawn)	0.841	1.17
CCO/C(O)=C1\C(C)=NC2=C(C(=O)CC(C)(C)C2)C1c1ccc(Cl)cc1Cl (stereo not drawn)	2.95	1.92
CC(NC(=S)Nc1cccc([N+](=O)[O-])c1)c1ccc(C(C)(C)C)cc1 (stereo not drawn)	> 15	6.22
CCOC(=O)c1ccc(Nc2nc3nonc3nc2O)cc1	> 15	> 15
CCc1c(C)nc(-n2nc(C)cc2NC(=O)c2ccccc2I)nc1O	> 15	> 15
Oc1ccc(Br)c2c1NC(c1ccc(Cl)cc1)C1CC=CC21 (stereo not drawn)	3.89	1.57
C[n+]1ccccc1/C=C/c1ccc(Br)cc1	1.4	1.46
CCCOC(=O)c1ccc(NC(=O)NC2CCCCC2)cc1	> 15	> 15
CCN(C(=O)c1cc2cc3ccc(OC)cc3nc2o1)c1ccc(F)cc1	> 15	> 15
Cc1cccc(NC(=O)CSc2nc3c4ccccc4nc-3c(O)n2-c2ccc([N+](=O)[O-])cc2)c1	> 15	4.68
CCOC(=O)C1=C(C)N=c2s/c(=C\c3cc(Cl)ccc3O)c(=O)n2C1c1ccc(OC)cc1 (stereo not drawn)	> 15	> 15
CCOc1ccc(N(C(C)=O)C2=C(N3CCCCC3)C(=O)c3ccccc3C2=O)cc1	0.542	> 15
CCc1ccc(C2C(C#N)=C(N)N(c3cccc(Cl)c3)C3=C2C(=O)CCC3)s1 (stereo not drawn)	> 15	> 15
CCOC(=O)c1ccc2nc(C)cc(Nc3ccc(N(C)C)cc3)c2c1	2.85	3.81
CC(C)Cc1cc(C(=O)NCC2Cc3cc(Cl)cc(-c4ccncc4)c3O2)no1 (stereo not drawn)	> 15	6.45
CCN(CC)c1cc(C)c2cc(NC(=O)c3cccc([N+](=O)[O-])c3)ccc2n1	0.59	> 15
CCCOc1ccc(Oc2nc(NCC)nc(OC)n2)nn1	1.87	4.24
CCOCCn1c(CN(Cc2ccccc2)Cc2ccccc2)nc2c1c(=O)n(C)c(=O)n2C	> 15	> 15

Compound	EC50 (Plasmodium falciparum [1]) [µM]	EC50 (Plasmodium falciparum [2]) [µM]
Cc1sc(NC(=O)CSc2ccc(Cl)cc2)nc1-c1ccccc1	> 15	> 15
COCCn1c(SCC(=O)Nc2cccc(F)c2)nc2c(c1=O)SC(C)C2 (stereo not drawn)	> 15	> 15
COc1ccc(C(=O)CSc2nnc(Cc3cc(O)nc(O)n3)n2-c2ccc(Cl)cc2)cc1	> 15	> 15
COc1ccc(C2C3=C(O)CC(c4ccccc4)CC3=NC(C)=C2C(=O)OCC(C)C)cc1OC (stereo not drawn)	> 15	3.92
N#Cc1ccc(Cn2c(=O)n(CCCC(=O)NCc3ccccc3)c(=O)c3sccc32)cc1	> 15	> 15
CCOC(=O)C(NC(=O)CC)(Nc1ccc(S(=O)(=O)Nc2cc(C)on2)cc1)C(F)(F)F (stereo not drawn)	4.49	8.98
COc1ccc(NC(=O)Cn2ncc3c(=O)oc4ccc(C)cc4c32)cc1	> 15	> 15
CCOc1cc(C2CC(=O)NC3=C2C(=O)CC(c2ccc(OC)cc2)C3)cc(Br)c1O (stereo not drawn)	1.13	1.53
COc1cccc(Nc2nc(NCC3CCCO3)c3ccccc3n2)c1 (stereo not drawn)	1.06	1.72
O=C(Nc1ccc(-c2nc3ccccc3[nH]2)cc1)[C@H](Cc1ccccc1)N1Cc2ccccc2C1=O	2.56	> 15
COc1cccc(C(=O)NC(c2ccc([N+](=O)[O-])cc2)c2c(O)ccc3ccccc23)c1 (stereo not drawn)	> 15	5.25
COc1ccc(OC)c(Nc2nc(NCCO)c3ccccc3n2)c1	> 15	> 15
COC(=O)c1c(S(=O)(=O)N2CCCCCC2)sc2c1CCN(Cc1ccc(F)c(OC)c1)C2	> 15	> 15
CN(C)S(=O)(=O)c1ccc(C(=O)NNc2nc3ccc(F)cc3s2)cc1	6.05	4.27
Cc1ccc(NC(=O)C2c3ccccc3C(=O)N(CC(C)C)C2c2cccs2)nc1 (stereo not drawn)	1.32	1.43
COc1ccc(C2C(C(=O)OC(C)C)=C(C)N=c3s/c(=C\c4cc(Cl)ccc4O)c(=O)n32)cc1 (stereo not drawn)	7	0.331
CCOC(=O)C(C)Sc1nc2ccccc2c(=O)n1CC1CCCCC1 (stereo not drawn)	> 15	> 15
Cc1ccc(S(=O)(=O)N(CC(=O)N2CCCCCC2)Cc2ccc(Cl)cc2)cc1	> 15	> 15
CCC1CCCCN1CCCNC(=O)c1ccc2c(c1)sc1nc(-c3ccc(F)cc3)cn12 (stereo not drawn)	0.463	1.3
COCCn1/c(=N/C(=O)CSCC(=O)Nc2cc(C)on2)sc2cc(OC)ccc21	> 15	> 15
CCCCCC/N=C1\CC(C)(C)CC(O)=C1C(=O)CCCN1C(=O)c2ccccc2C1=O	> 15	> 15
